Holding throughout (assay): Bliss excess, mean over the matrix (fraction); higher = more synergy
Assay [1] deals with 22RV1 (Prostate Carcinoma). The essentials:
(§1)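 Bliss excess equals the observed combination effect minus the expected value EA + EB − EA·EB, where EA and EB are the effects of each agent alone. Combination Emax is the second-highest inhibition within the matrix. Inhibition was scaled from CellTiter-Glo 2.0 luminescence, with 0 set by vehicle wells and 1 by blank wells, after 72 hours of two-drug dosing of cells plated in 1536-well plates.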

In a further assay the test system is 5637 (Bladder Carcinoma). The essentials: as §1
The next assay concerns A101D (Melanoma). The essentials:
as §1

Assay [2] relates to A253 (Head and Neck Carcinoma). In short, it runs like this: as §1
In another assay the test system is AU565 (Breast Carcinoma). The essentials:
as §1

Assay [3] concerns CESS (Acute Myeloid Leukemia). The essentials: as §1
Assay [4] relates to CGTH-W-1 (Thyroid Gland Carcinoma). In short, it runs like this:
as §1

Another assay deals with COLO-792 (Melanoma). In short, it runs like this:
as §1

In assay [5] the test system is DMS-53 (Small Cell Lung Carcinoma). In short, it runs like this:
as §1

The test system of assay [6] is GA-10 (Burkitt's Lymphoma). The essentials: as §1
Assay [7] relates to GCT (Other Solid Carcinomas). In short, it runs like this: as §1
For assay [8], the system named is HCC1395 (Breast Carcinoma). The essentials: as §1
The subject of assay [9] is HT55 (Colorectal Carcinoma). The essentials: as §1
In assay [10] the test system is JHU-022 (Oral Cavity Carcinoma). In short, it runs like this: as §1
For assay [11], the system named is JVM-2 (B-Cell Non-Hodgkin's Lymphoma). In short, it runs like this:
as §1

The next assay relates to NB13 (Neuroblastoma). In short, it runs like this:
as §1

Assay [12] relates to NCI-H2087 (Lung Adenocarcinoma). The essentials: as §1
For a further assay, the system named is PEO1 (Ovarian Carcinoma). The essentials: as §1
In assay [13] the test system is SK-HEP-1 (Hepatocellular Carcinoma). The essentials: as §1
Assay [14] has as its system SW620 (Colorectal Carcinoma). The essentials: as §1

These results are taken from the supplement of paper PMC11061612.

Molecules are shown by their SMILES.

For the compound `COc1cccc(OCCCN)c1-c1cc(Nc2cnc(C#N)cn2)n[nH]1` [Prexasertib] + CCc1c2c(nc3ccc(O)cc13)-c1cc3c(c(=O)n1C2)COC(=O)[C@]3(O)CC [SN-38] (first compound max 1 µM, 7x7, partner max 0.3 µM), the Bliss excess is -0.0649 in [1]; 0.0891 with 5637 (Bladder Carcinoma); -0.0308 in the assay with A101D (Melanoma); 0.0296 in assay [2]; -0.0213 in the assay with AU565 (Breast Carcinoma); -0.0364 in [3]. Moreover, the Bliss excess in [4] is -0.0566; with COLO-792 (Melanoma), 0.087; in assay [5], -0.0377; in assay [6], 0.0088; in assay [7], -0.0185; in assay [8], -0.0466. Also, the Bliss excess was 0.0552 in assay [9]; -0.112 in assay [10]; -0.0493 in [11]; 0.0263 with NB13 (Neuroblastoma); -0.0495 in assay [12]; -0.0015 in the assay on PEO1 (Ovarian Carcinoma). The Bliss excess in assay [13] is -0.0339; in [14], 0.0603.
For `COc1cccc(OCCCN)c1-c1cc(Nc2cnc(C#N)cn2)n[nH]1` [Prexasertib] + CN(C)CCCOc1ccc(-c2ccc3ncc4c(c3c2)n(C2CCOCC2)c(=O)n4C)cn1 [AZD0156] (first compound max 1 µM, 7x7, partner max 1 µM), the Bliss excess in [1] was -0.0213; in the assay on 5637 (Bladder Carcinoma), -0.0174; with A101D (Melanoma) it was 0.0419; in [2], -0.0379; with AU565 (Breast Carcinoma) it was -0.073; in [3] it was 0.0062. The Bliss excess in assay [4] is -0.0614; with COLO-792 (Melanoma), -0.0447; in assay [5], -0.0142; in assay [6], 0.0213; in assay [7] it was -0.0084; in assay [8] it was -0.046. For the same compound, the Bliss excess was 0.0444 in assay [9]; -0.0231 in assay [10]; -0.0104 in assay [11]; -0.0268 with NB13 (Neuroblastoma); -0.0405 in assay [12]; -0.0168 in the assay on PEO1 (Ovarian Carcinoma). Besides, the Bliss excess in [13] was -0.0206; in assay [14], -0.0032.
`COc1cccc(OCCCN)c1-c1cc(Nc2cnc(C#N)cn2)n[nH]1` [Prexasertib] + C[C@@H]1COCCN1C2=NC(=NC(=C2)C3(CC3)[S@](=N)(=O)C)C4=C5C=CNC5=NC=C4 [AZD6738] (first compound max 1 µM, 7x7, partner max 10 µM): the Bliss excess in [1] is 0.0209; with 5637 (Bladder Carcinoma), -0.0304; in the assay with A101D (Melanoma) it was -0.0066; in assay [2], -0.0334; in the assay with AU565 (Breast Carcinoma), -0.0612; in assay [3] it was -0.0065. The Bliss excess in [4] is -0.0348; with COLO-792 (Melanoma) it was -0.0376; in [5], 0.032; in assay [6], -0.0023; in [7] it was -0.0001; in [8], -0.0399. In addition, the Bliss excess in assay [9] is 0.0367; in assay [10], -0.0238; in [11] it was -0.0625; with NB13 (Neuroblastoma), -0.0603; in assay [12], 0.0072; in the assay on PEO1 (Ovarian Carcinoma), -0.0083. Further, the Bliss excess was 0.0447 in [13] and 0.013 in [14].
With `COc1cccc(OCCCN)c1-c1cc(Nc2cnc(C#N)cn2)n[nH]1` [Prexasertib] + Cc1cc2ncnn2cc1Nc1ncc2c(n1)n(C1CCOCC1)c(=O)n2C [AZD7648] (first compound max 1 µM, 7x7, partner max 10 µM), the Bliss excess in assay [1] was -0.0316; in the assay on 5637 (Bladder Carcinoma), -0.0423; with A101D (Melanoma), 0.0232; in assay [2] it was -0.0228; in the assay with AU565 (Breast Carcinoma) it was 0.0086; in [3] it was 0.0409. Further, the Bliss excess is -0.0455 in [4]; 0.0103 in the assay with COLO-792 (Melanoma); -0.0344 in [5]; -0.0051 in assay [6]; 0.0365 in [7]; -0.0527 in [8]. In addition, the Bliss excess in [9] was -0.0102; in [10] it was -0.0661; in assay [11] it was 0.0171; in the assay with NB13 (Neuroblastoma) it was -0.023; in [12], 0.008; in the assay on PEO1 (Ovarian Carcinoma) it was -0.0117. Besides, the Bliss excess in [13] is -0.0416; in assay [14] it was -0.0177.
As to `COc1cccc(OCCCN)c1-c1cc(Nc2cnc(C#N)cn2)n[nH]1` [Prexasertib] + O=C(c1cc(Cc2n[nH]c(=O)c3ccccc23)ccc1F)N1CCN(C(=O)C2CC2)CC1 [Olaparib] (first compound max 1 µM, 7x7, partner max 10 µM), the Bliss excess in assay [1] is -0.072; in the assay with 5637 (Bladder Carcinoma) it was -0.0729; in the assay on A101D (Melanoma) it was -0.0549; in [2] it was -0.0617; in the assay on AU565 (Breast Carcinoma) it was -0.0097; in [3] it was -0.0511. The Bliss excess in [4] is -0.0511; in the assay on COLO-792 (Melanoma), 0.0173; in assay [5] it was -0.0473; in [6], -0.0649; in [7], 0.0068; in assay [8], -0.0368. Besides, the Bliss excess is -0.0102 in assay [9]; -0.0537 in assay [10]; 0.0213 in assay [11]; -0.0317 in the assay with NB13 (Neuroblastoma); -0.11 in [12]; -0.0183 with PEO1 (Ovarian Carcinoma). Further, the Bliss excess was -0.0127 in [13] and -0.0457 in assay [14].
Regarding `CCc1c2c(nc3ccc(O)cc13)-c1cc3c(c(=O)n1C2)COC(=O)[C@]3(O)CC` [SN-38] + CN(C)CCCOc1ccc(-c2ccc3ncc4c(c3c2)n(C2CCOCC2)c(=O)n4C)cn1 [AZD0156] (first compound max 0.3 µM, 7x7, partner max 1 µM), the Bliss excess in assay [1] is 0.0403; in the assay with 5637 (Bladder Carcinoma), 0.0507; in the assay on A101D (Melanoma) it was 0.0006; in assay [2] it was -0.0019; with AU565 (Breast Carcinoma), -0.0621; in assay [3] it was 0.0031. Also, the Bliss excess in assay [4] was -0.0056; in the assay on COLO-792 (Melanoma), -0.011; in [5], -0.0288; in assay [6], 0.0494; in assay [7] it was 0.0183; in assay [8], -0.0024. In addition, the Bliss excess in [9] is 0.0776; in assay [10], -0.0034; in assay [11], 0.0156; in the assay with NB13 (Neuroblastoma), 0.0313; in [12], 0.0485; in the assay with PEO1 (Ovarian Carcinoma), -0.0037. Moreover, the Bliss excess is 0.0105 in assay [13] and 0.11 in [14].
Turning to `Cn1cnc2c(F)c(Nc3ccc(Br)cc3Cl)c(C(=O)NOCCO)cc21` [Selumetinib] + C=CCn1c(=O)c2cnc(Nc3ccc(N4CCN(C)CC4)cc3)nc2n1-c1cccc(C(C)(C)O)n1 [AZD1775] (first compound max 10 µM, partner max 1 µM), the Bliss excess is 0.0454 in assay [1]; -0.0306 in the assay with 5637 (Bladder Carcinoma); -0.087 with A101D (Melanoma); -0.0181 in assay [2]; -0.0507 in the assay with AU565 (Breast Carcinoma); -0.0037 in assay [3]. Further, the Bliss excess in assay [4] is -0.0427; with COLO-792 (Melanoma) it was 0.0092; in [5], -0.0174; in assay [6] it was -0.0321; in [7], -0.0074; in [8], -0.0333. Further, the Bliss excess in assay [9] is -0.0422; in assay [10], 0.0283; in assay [11], -0.071; with NB13 (Neuroblastoma), -0.0591; in assay [12] it was 0.0084; in the assay with PEO1 (Ovarian Carcinoma) it was -0.0059. Further, the Bliss excess in assay [13] is 0.0127; in assay [14] it was -0.0198.
